Literature values as cited in US20260245667A1, “EFFICIENT DETECTION OF DECENTRALIZED BIOMARKERS OF GROUPS OF DNA SEQUENCES IN MICROBIOME DNA” (ALPHABIOME AI LTD, priority 2023, published 2026).

Tests used:
[1] = system: ruminal methane production; details: meta-analyses

SMILES | mitigation of methane emissions in vitro (methane emissions; in vitro) | levels of propionate and butyrate (methane emissions; partial incubation periods) | methanogenesis inhibition, reduction on average in dairy [1]
C=CCS[S+]([O-])CC=C (stereo not drawn) [Allicin] | up to 38% | elevate | –
CC[C@@]1([C@@H]2O[C@@H]([C@H]3O[C@@](O)(CO)[C@H](C)C[C@@H]3C)C[C@@H]2C)CC[C@H]([C@]2(C)CC[C@]3(C[C@H](O)[C@@H](C)[C@@H]([C@@H](C)[C@@H](OC)[C@H](C)C(=O)O)O3)O2)O1 [Monensin] | – | – | up to 10%
